Reference: patent US8808751B2, “Methods for the preparation of biologically active compounds in nanoparticulate form” (Iceutica Pty Ltd., priority 2006, dated 2014)
Where a name gives a salt, the structure may show the parent alone. Blank lines part the entries; values can stand above or below the molecule they belong to.

How the values were obtained:
[1] = Particle size distribution (dynamic light scattering); format: physicochemical; settings: washed dispersion, larger aggregates removed by centrifugation
Description: In a preferred form of the invention, about 90% of the particles have a particle size of less than about 500 nm. The particles distribution can be measured with dynamic light scattering of a dispersion of the particles with the aid of sonication, and after centrifugation at 500 rcf for 30 seconds to remove larger agglomerates from the dispersion. Other means to measure the particles size are for examples surface area measurements, and electron micrographs, which can be used to support the measured size distribution of the particles.
The size determined by SEM is in good agreement with the size distribution of the dispersion before drying by dynamic light scatter (DLS) (FIG. 10). Here the particles size was determined with a Malvern HPPS dynamic light scattering apparatus with a size distribution after number of 128±53 nm (number weighted) in intensity a second peak of 300 nm was detected. Prior to the measurement any larger aggregates or agglomerates were removed by 1 min centrifugation at 6000 g, and only the supernatant was analyzed.

[2] = Particle size from SEM/TEM images; format: physicochemical; settings: for particle size (SEM/TEM): milled with NaCl, grinding compound removed by washing
[3] = BET surface area; format: physicochemical; settings: for BET surface area: raloxifene forms, milled with NaCl and washed (commercial: as obtained)
[4] = Pharmacokinetics after oral capsule administration, crossover study; format: in vivo; settings: 12 beagle dogs
Protocol: This study involved the investigation of the pharmacokinetics of raloxifene hydrochloride following oral administration of two dosage formulations to 12 male and female beagle dogs. The two dosage forms investigated were 1) raloxifene hydrochloride particles, developed according to the method of the present invention, and 2) standard API. Both forms were administered as capsules prepared by the Pharmaceutics laboratory of TetraQ.
The study was designed as a crossover trial conducted in 6 male and 6 female healthy Beagle dogs. Raloxifene was administered as an oral dose with three male plus three female dogs each receiving one of the two preparations on each of two dosing occasions. Eleven plasma samples were collected from each animal in the 24 hour period following each dose and these were all available for determination of raloxifene concentration.
Plasma samples were transported to the TetraQ-ADME laboratories on dry ice and all were in an intact (frozen) condition upon arrival. The concentration of raloxifene in the plasma samples was determined by an LC-MS/MS assay developed and validated by TetraQ-ADME,
Pharmacokinetic analysis was performed using purpose-written macros for Excel Software. Standard model-independent pharmacokinetic methods were used. Nominal sampling times were used in the calculations. The plasma raloxifene concentrations were used to determine the following parameters: • (i) Cmax Maximum plasma concentration, read directly from the raw data. • (ii) Tmax Time at which Cmax was achieved, also read directly from the raw data. • (iii) ke Terminal elimination rate constant, which was determined as the slope of the regression line of best fit to the approximately log-linear terminal elimination phase (using the least squares linear regression function in the Excel 2003 software). […]

[5] = Dissolution in simulated intestinal fluid; format: physicochemical; settings: simulated intestinal fluid (SIF), 60 mg in 1 L fluid, 90 minutes post addition
Protocol: (§1) The dissolution properties of the particulate raloxifene hydrochloride were tested with a USP apparatus in simulated gastric conditions, and compared with commercial raloxifene hydrochloride. About 60 mg of particulate raloxifene hydrochloride and commercial raloxifene hydrochloride, respectively, were introduced into gelatin capsules. The dissolution properties were followed as a function of solution concentration versus time.
(§2) As tested prior to administration to the dogs, the particulate raloxifene hydrochloride had the following properties: >75% of the particles were in the range of 220-350 nm in size, with >90% in the range of […]. […] At 90 minutes post addition, approximately 15 mg/L of particulate raloxifene was detected versus 8 mg/L of comparison API for SGF; and 4.5 mg/L versus 0.75 mg/L for SIF.

[6] = Dissolution in simulated gastric fluid (USP apparatus); format: physicochemical; settings: simulated gastric fluid (SGF), 60 mg in 1 L fluid, 90 minutes post addition
Protocol: as §1
The dissolution conditions were as follows: 1 L of 0.1 M HCl containing 2 g of NaCl were degassed and brought to 37° C. in a USP conform dissolution vessel to paddle and stirred at about 80 rpm. […] For each time point, 2 mL of sample were removed from the solution, to remove larger aggregates it was centrifuged for 1 min at 10000 g and 1.5 ml was taken from the top of the solution and the concentration was measured using a Waters HPLC running a method validated with respect to specificity, linearity, precision and repeatability.
as §2

[7] = Stability of drug on dry milling; format: physicochemical; settings: dry milled with NaCl for 180 minutes; attributed to degradation of the drug
Protocol: [drawing 3] was placed in a milling apparatus (a 70 cm^3 stainless steel ball mill container) with grinding compound in the form of 3.68 g of NaCl, thereby providing the mixture at 9.6 and 90.4 weight % respectively, corresponding to 15 and 85 volume %, with a total volume of 2 cm^3. Milling media comprising 40 g of 10 mm steel balls (10 pieces) were employed in the container. The milling apparatus was closed under house vacuum prior to milling. […] The mixture was dry milled for 15 minutes and 180 minutes, the composition resulting after milling for both times comprised olanzapine in nanoparticulate form dispersed in the grinding medium NaCl.
Milling times assayed included 15 and 180 minutes in two separate milling runs. Analysis of the melting point of the nanoparticles produced at 180 minute milling time period confirmed that the resulting composition was olanzapine, with a melting point in the range of 200° C.

[8] = 15 vol % sample in NaCl, washed, stabilized with CTAB

- particle size by DLS (number weighted) [1]: 160±30 nm
- nanoparticle size [2, 8]: less than 200 nm
- size of the majority of nanoparticles [2, 8]: 30-50 nm
- nanoparticle diameter (TEM) ([2]; milled with NH4Cl, washed with 0.01 M HCl and 1 mM CTAB): about 200 nm
- particle size (SEM/TEM) [2]: 100-200 nm
Structure (SMILES): O=C(O)Cc1ccccc1Nc1c(Cl)cccc1Cl [DCA, diclofenac acid]

- particle diameter calculated from BET surface area ([3]; density of 1.2 g/cm^3): 85 nm
- particle diameter calculated from BET surface area ([3]; density of 1.3 g/cm^3, assuming monodispersed nanoparticles): about 80 nm
- particle diameter calculated from BET surface area ([3]; density of 1.4 g/cm^3): 70 nm
- BET surface area [3]: 57.7178±0.4095 m^2/g
- particle size (SEM/TEM) [2]: under 100 nm
Structure (SMILES): O=C(c1ccc(OCCN2CCCCC2)cc1)c1c(-c2ccc(O)cc2)sc2cc(O)ccc12 [Raloxifene Free Base]

- BET surface area ([3]; hydrochloride): 10.6 m^2/g
- particle size (SEM/TEM) ([2]; hydrochloride): 100-200 nm
Structure (SMILES): O=C(c1ccc(OCCN2CCCCC2)cc1)c1c(-c2ccc(O)cc2)sc2cc(O)ccc12 [Raloxifene HCl (Amorphous), raloxifene hydrochloride]

- area under the concentration vs. time curve (AUC0-t) ([4]; mean±SD): 21.36 ± 16.79 ng·h/mL
- Cmax ([4]; both sexes, dog, plasma, mean±SD, read-out: maximum plasma concentration (Cmax)): 7.69 ± 4.54 ng/mL
- Tmax ([4]; both sexes, dog, plasma, read-out: median time to maximum concentration (Tmax)): 1.5 h
- BET surface area ([3]; listed as commercial raloxifene HCl, hydrochloride): 0.1 m^2/g
- solution concentration detected (dissolution) [5]: ~0.75 mg/L
- solution concentration detected (dissolution) [6]: ~8 mg/L
Structure (SMILES): O=C(c1ccc(OCCN2CCCCC2)cc1)c1c(-c2ccc(O)cc2)sc2cc(O)ccc12 [commercial raloxifene hydrochloride, raloxifene hydrochloride]

Structure (SMILES): Cc1cc2c(s1)Nc1ccccc1N=C2N1CCN(C)CC1 [olanzapine]
- appearance after milling (degradation) [7]: some decolourization
